From ChEMBL document CHEMBL1149800, “Synthesis, physicochemical properties and antimicrobial evaluation of new (E)-chalcones” (Eur J Med Chem, 2008)
In brackets after ≈: the same amount, converted by molar mass.

Assays:
Staphylococcus aureus = test: Antibacterial activity against Staphylococcus aureus 209P FDA after 18 hrs by hole-plate agar diffusion method; format: functional
Nannizzia gypsea = test: Antifungal activity against Microsporum gypseum after 3 to 7 days; format: functional
Enterococcus faecalis = test: Antibacterial activity against Enterococcus faecalis after 18 hrs by hole-plate agar diffusion method; format: functional
Bacillus subtilis = test: Antibacterial activity against Bacillus subtilis ATCC 1633 after 18 hrs by hole-plate agar diffusion method; format: functional; settings: ATCC 1633, 18 h
Candida albicans = test: Antifungal activity against Candida albicans PCM 1409 PZH after 3 to 7 days; format: functional, organism-based
Escherichia coli = test: Antibacterial activity against Escherichia coli PZH 026 B6 after 18 hrs by hole-plate agar diffusion method; format: functional

SMILES | MIC (Staphylococcus aureus) | MIC (Nannizzia gypsea) | MIC (Enterococcus faecalis) | MIC (Bacillus subtilis) | MIC (Candida albicans) | MIC (Escherichia coli)
CC1CCN(CCCCCCOc2ccc(/C=C/C(=O)c3ccccc3)cc2)CC1 | 25 µM (≈ 10.1 µg/mL) | 123 µM (≈ 49.9 µg/mL) | 25 µM (≈ 10.1 µg/mL) | 19 µM (≈ 7.71 µg/mL) |  | 
O=C(/C=C/c1ccc(OCCCCN2CCOCC2)cc1)c1ccccc1 |  | 274 µM (≈ 100 µg/mL) |  |  |  | 
O=C(/C=C/c1ccc(OCCCCCN2CCOCC2)cc1)c1ccccc1 |  | 264 µM (≈ 100 µg/mL) |  |  |  | 
O=C(/C=C/c1ccc(OCCCCCCN2CCOCC2)cc1)c1ccccc1 |  | 254 µM (≈ 100 µg/mL) |  |  |  | 
O=C(/C=C/c1ccc(SCCCCCN2CCOCC2)cc1)c1ccccc1 |  | 189 µM (≈ 74.8 µg/mL) |  |  |  | 
O=C(/C=C/c1ccc(SCCCCCCN2CCOCC2)cc1)c1ccccc1 |  | < 244 µM |  |  |  | 
O=C(/C=C/c1ccc(OCCCCCBr)cc1)c1ccccc1 |  | 268 µM (≈ 100 µg/mL) |  |  |  | 
O=C(/C=C/c1ccc(OCCCCN2CCCCC2)cc1)c1ccccc1 | 275 µM (≈ 100 µg/mL) |  | 275 µM (≈ 100 µg/mL) | 275 µM (≈ 100 µg/mL) |  | 
O=C(/C=C/c1ccc(SCCCCCN2CCCCC2)cc1)c1ccccc1 | 254 µM (≈ 100 µg/mL) | 254 µM (≈ 100 µg/mL) | 254 µM (≈ 100 µg/mL) | 254 µM (≈ 100 µg/mL) | 127 µM (≈ 50 µg/mL) | 254 µM (≈ 100 µg/mL)
O=C(/C=C/c1ccc(OCCCCCN2CCCCC2)cc1)c1ccccc1 | 265 µM (≈ 100 µg/mL) |  | 265 µM (≈ 100 µg/mL) | 265 µM (≈ 100 µg/mL) |  | 
CC1CCN(CCCCOc2ccc(/C=C/C(=O)c3ccccc3)cc2)CC1 | 133 µM (≈ 50.2 µg/mL) | 265 µM (≈ 100 µg/mL) | 265 µM (≈ 100 µg/mL) | 265 µM (≈ 100 µg/mL) |  | 
CC1CCN(CCCCCOc2ccc(/C=C/C(=O)c3ccccc3)cc2)CC1 | 19 µM (≈ 7.44 µg/mL) | 256 µM (≈ 100 µg/mL) | 26 µM (≈ 10.2 µg/mL) | 128 µM (≈ 50.1 µg/mL) |  | 
O=C(/C=C/c1ccc(OCCCCCCN2CCCCC2)cc1)c1ccccc1 | 256 µM (≈ 100 µg/mL) | < 256 µM | 256 µM (≈ 100 µg/mL) | 256 µM (≈ 100 µg/mL) |  | 
O=C(/C=C/c1ccc(OCCCCCCCCCCN2CCCCC2)cc1)c1ccccc1 | 21 µM (≈ 9.4 µg/mL) |  | 209 µM (≈ 93.6 µg/mL) | 209 µM (≈ 93.6 µg/mL) |  | 
O=C(/C=C/c1ccc(SCCCCBr)cc1)c1ccccc1 | 267 µM (≈ 100 µg/mL) |  |  |  |  | 
O=C(/C=C/c1ccc(SCCCCCCN2CCCCC2)cc1)c1ccccc1 | 25 µM (≈ 10.2 µg/mL) | < 246 µM | 25 µM (≈ 10.2 µg/mL) | 25 µM (≈ 10.2 µg/mL) | < 246 µM | 
O=C(/C=C/c1ccc(SCCCCCCCCCCN2CCCCC2)cc1)c1ccccc1 | 216 µM (≈ 100 µg/mL) | 216 µM (≈ 100 µg/mL) |  |  |  | 
O=C(/C=C/c1ccc(SCCCCCBr)cc1)c1ccccc1 |  | 193 µM (≈ 75.1 µg/mL) |  |  |  | 
O=C(/C=C/c1ccc(SCCCCN2CCCCC2)cc1)c1ccccc1 | 26 µM (≈ 9.87 µg/mL) | 264 µM (≈ 100 µg/mL) | 264 µM (≈ 100 µg/mL) | 26 µM (≈ 9.87 µg/mL) |  | 
CC1CCN(CCCCSc2ccc(/C=C/C(=O)c3ccccc3)cc2)CC1 | 25 µM (≈ 9.84 µg/mL) | 191 µM (≈ 75.2 µg/mL) | 254 µM (≈ 100 µg/mL) | 254 µM (≈ 100 µg/mL) |  | 
CC1CCN(CCCCCSc2ccc(/C=C/C(=O)c3ccccc3)cc2)CC1 | 18 µM (≈ 7.34 µg/mL) | 184 µM (≈ 75 µg/mL) | 25 µM (≈ 10.2 µg/mL) | 25 µM (≈ 10.2 µg/mL) | 184 µM (≈ 75 µg/mL) | 
CC1CCN(CCCCCCSc2ccc(/C=C/C(=O)c3ccccc3)cc2)CC1 | 24 µM (≈ 10.1 µg/mL) | < 237 µM | 24 µM (≈ 10.1 µg/mL) | 18 µM (≈ 7.59 µg/mL) | < 237 µM | 
O=C(/C=C/c1ccc(SCCCCCCN2CCNCC2)cc1)c1ccccc1 | 245 µM (≈ 100 µg/mL) |  | 245 µM (≈ 100 µg/mL) |  |  | 
O=C(/C=C/c1ccc(SCCCCN2CCNCC2)cc1)c1ccccc1 | 263 µM (≈ 100 µg/mL) |  | 263 µM (≈ 100 µg/mL) | 263 µM (≈ 100 µg/mL) |  | 
C[C@@H]1[C@H](O)[C@@H](C)/C=C/C=C/C=C/C=C/C=C/C=C/C=C/[C@H](O[C@@H]2O[C@H](C)[C@@H](O)[C@H](N)[C@@H]2O)C[C@@H]2O[C@](O)(C[C@@H](O)C[C@@H](O)[C@H](O)CC[C@@H](O)C[C@@H](O)CC(=O)O[C@H]1C)C[C@H](O)[C@H]2C(=O)O [AMPHOTERICIN B] |  | 11 µM (≈ 10.2 µg/mL) |  |  | 0.5 µM (≈ 0.462 µg/mL) | 
O=C(N[C@H](CO)[C@H](O)c1ccc([N+](=O)[O-])cc1)C(Cl)Cl [CHLORAMPHENICOL] | 15 µM (≈ 4.85 µg/mL) |  | 15 µM (≈ 4.85 µg/mL) | 15 µM (≈ 4.85 µg/mL) |  | 15 µM (≈ 4.85 µg/mL)
